Reference: ChEMBL document CHEMBL1201862, “PubChem BioAssay data set” (2004)
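A five-concentration, 48-hour dose response in 96-well plates underlies each endpoint, interpolated linearly between surrounding concentrations. GI50 = concentration required for 50% inhibition of growth.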 Calls of active or inactive are those of the source. Rule as the data show it: active = GI50 up to about 1.1 µM and inactive = higher.

Key:
Experiment in all cases: DTP human tumour cell line panel, 48 h
A498 = system: A498
SK-MEL-28 = system: SK-MEL-28
SNB-19 = system: SNB-19
OVCAR-8 = system: OVCAR-8
XF498 = system: XF498
SNB-75 = system: SNB-75
EKVX = system: EKVX
SF-295 = system: SF-295
DMS-273 = system: DMS-273
M19-MEL = system: M19-MEL
NCI-H226 = system: NCI-H226
DMS-114 = system: DMS-114
HOP-18 = system: HOP-18
SW-620 = system: SW-620
A549 = system: A549
SK-MEL-2 = system: SK-MEL-2
OVCAR-3 = system: OVCAR-3
SF-539 = system: SF-539
LOX IMVI = system: LOX IMVI
SK-MEL-5 = system: SK-MEL-5
SR = system: SR
OVCAR-4 = system: OVCAR-4
HOP-62 = system: HOP-62
CAKI-1 = system: CAKI-1
SF-268 = system: SF-268
SN12C = system: SN12C
KM-20L2 = system: KM-20L2
COLO 205 = system: COLO 205
HT-29 = system: HT-29
NCI-H460 = system: NCI-H460
M14 = system: M14
786-0 = system: 786-0
ACHN = system: ACHN
HCT-116 = system: HCT-116
CCRF-CEM = system: CCRF-CEM
HCC 2998 = system: HCC 2998
DLD-1 = system: DLD-1
HL-60 = system: HL-60
SNB-78 = system: SNB-78
SK-OV-3 = system: SK-OV-3
U-251 = system: U-251
NCI-H23 = system: NCI-H23
K562 = system: K562
IGROV-1 = system: IGROV-1
HOP-92 = system: HOP-92
Malme-3M = system: Malme-3M
NCI-H522 = system: NCI-H522
KM12 = system: KM12
OVCAR-5 = system: OVCAR-5
UACC-62 = system: UACC-62
RPMI-8226 = system: RPMI-8226
UACC-257 = system: UACC-257
TK-10 = system: TK-10
HCT-15 = system: HCT-15
LXFL 529 = system: LXFL 529
RXF 393 = system: RXF 393
UO-31 = system: UO-31

Compound: COc1ccccc1NC(=O)CSC(N)=O
- GI50 (A498): > 100 µM (inactive)
- GI50 (SK-MEL-28): 48.1 µM (inactive)
- GI50 (SNB-19): > 100 µM (inactive)
- GI50 (OVCAR-8): 68.2 µM (inactive)
- GI50 (XF498): 30.8 µM (inactive)
- GI50 (SNB-75): 30 µM (inactive)
- GI50 (EKVX): 60.1 µM (inactive)
- GI50 (SF-295): 38.4 µM (inactive)
- GI50 (DMS-273): 34.4 µM (inactive)
- GI50 (M19-MEL): 29.2 µM (inactive)
- GI50 (NCI-H226): 39.2 µM (inactive)
- GI50 (DMS-114): 46.2 µM (inactive)
- GI50 (HOP-18): 82.8 µM (inactive)
- GI50 (SW-620): 32.2 µM (inactive)
- GI50 (A549): 72.6 µM (inactive)
- GI50 (SK-MEL-2): 22.9 µM (inactive)
- GI50 (OVCAR-3): 57.8 µM (inactive)
- GI50 (SF-539): 34 µM (inactive)
- GI50 (LOX IMVI): 36.4 µM (inactive)
- GI50 (SK-MEL-5): 47.8 µM (inactive)
- GI50 (SR): 25.8 µM (inactive)
- GI50 (OVCAR-4): > 100 µM (inactive)
- GI50 (HOP-62): 24.7 µM (inactive)
- GI50 (CAKI-1): 33.6 µM (inactive)
- GI50 (SF-268): 53.8 µM (inactive)
- GI50 (SN12C): 62.2 µM (inactive)
- GI50 (KM-20L2): > 100 µM (inactive)
- GI50 (COLO 205): > 100 µM (inactive)
- GI50 (HT-29): 47.2 µM (inactive)
- GI50 (NCI-H460): 32.7 µM (inactive)
- GI50 (M14): 45.4 µM (inactive)
- GI50 (786-0): 19.1 µM (inactive)
- GI50 (ACHN): 42.3 µM (inactive)
- GI50 (HCT-116): 18.8 µM (inactive)
- GI50 (CCRF-CEM): 12.9 µM (inactive)
- GI50 (HCC 2998): > 100 µM (inactive)
- GI50 (DLD-1): 42.1 µM (inactive)
- GI50 (HL-60): 0.349 µM (active)
- GI50 (SNB-78): 50.4 µM (inactive)
- GI50 (SK-OV-3): > 100 µM (inactive)
- GI50 (U-251): 25.6 µM (inactive)
- GI50 (NCI-H23): 69.3 µM (inactive)
- GI50 (K562): 46 µM (inactive)
- GI50 (IGROV-1): 66.5 µM (inactive)
- GI50 (HOP-92): > 100 µM (inactive)
- GI50 (Malme-3M): 43 µM (inactive)
- GI50 (NCI-H522): 33.4 µM (inactive)
- GI50 (KM12): 49.5 µM (inactive)
- GI50 (OVCAR-5): > 100 µM (inactive)
- GI50 (UACC-62): 25.8 µM (inactive)
- GI50 (RPMI-8226): 39.4 µM (inactive)
- GI50 (UACC-257): 62.2 µM (inactive)
- GI50 (TK-10): > 100 µM (inactive)
- GI50 (HCT-15): 42.8 µM

Compound: CCOC(=O)C1=C(Nc2ccc(NC3=C(C(=O)OCC)C(=O)CS3)cc2)SCC1=O
- GI50 (A498): 20.5 µM (inactive)
- GI50 (SK-MEL-28): 16.8 µM (inactive)
- GI50 (SNB-19): 32.2 µM (inactive)
- GI50 (OVCAR-8): 27 µM (inactive)
- GI50 (XF498): 13.5 µM (inactive)
- GI50 (SNB-75): 16.6 µM (inactive)
- GI50 (EKVX): 35.2 µM (inactive)
- GI50 (SF-295): 26.5 µM (inactive)
- GI50 (DMS-273): 20.7 µM (inactive)
- GI50 (M19-MEL): 21.7 µM (inactive)
- GI50 (NCI-H226): 19.8 µM (inactive)
- GI50 (DMS-114): 22.6 µM (inactive)
- GI50 (SW-620): 25.9 µM (inactive)
- GI50 (A549): 30.3 µM (inactive)
- GI50 (LXFL 529): 22.1 µM (inactive)
- GI50 (SK-MEL-2): 16.5 µM (inactive)
- GI50 (OVCAR-3): 36.7 µM (inactive)
- GI50 (SF-539): 20.1 µM (inactive)
- GI50 (LOX IMVI): 14.2 µM (inactive)
- GI50 (SK-MEL-5): 19.1 µM (inactive)
- GI50 (OVCAR-4): 30.9 µM (inactive)
- GI50 (HOP-62): 34 µM (inactive)
- GI50 (CAKI-1): 14.8 µM (inactive)
- GI50 (SF-268): 22 µM (inactive)
- GI50 (SN12C): 19.5 µM (inactive)
- GI50 (KM-20L2): 35.2 µM (inactive)
- GI50 (COLO 205): 17.7 µM (inactive)
- GI50 (HT-29): 19.3 µM (inactive)
- GI50 (NCI-H460): 30.1 µM (inactive)
- GI50 (M14): 20.4 µM (inactive)
- GI50 (786-0): 14.6 µM (inactive)
- GI50 (ACHN): 22 µM (inactive)
- GI50 (HCT-116): 18.5 µM (inactive)
- GI50 (RXF 393): 16 µM (inactive)
- GI50 (CCRF-CEM): 29.8 µM (inactive)
- GI50 (UO-31): 17.5 µM (inactive)
- GI50 (DLD-1): 20.7 µM (inactive)
- GI50 (HL-60): 32.7 µM (inactive)
- GI50 (SNB-78): 33.6 µM (inactive)
- GI50 (SK-OV-3): 30 µM (inactive)
- GI50 (U-251): 25.2 µM (inactive)
- GI50 (NCI-H23): 10 µM (inactive)
- GI50 (K562): 30.5 µM (inactive)
- GI50 (IGROV-1): 24.3 µM (inactive)
- GI50 (HOP-92): 24.6 µM (inactive)
- GI50 (Malme-3M): 18.6 µM (inactive)
- GI50 (NCI-H522): 13.7 µM (inactive)
- GI50 (KM12): 21.5 µM (inactive)
- GI50 (OVCAR-5): 22.7 µM (inactive)
- GI50 (UACC-62): 16.9 µM (inactive)
- GI50 (RPMI-8226): 18.5 µM (inactive)
- GI50 (UACC-257): 22.7 µM (inactive)
- GI50 (TK-10): 30.7 µM (inactive)
- GI50 (HCT-15): 18.5 µM
